Source: article PMC5502055, “Phase II study of lanreotide autogel in Japanese patients with unresectable or metastatic well-differentiated neuroendocrine tumors” (Investigational New Drugs, 2017)

Key:
[1] = system: Japanese patients with grade (G) 1/G2 NET; assay: Phase II and extension study: anti-tumor efficacy by RECIST ver. 1.1 (CBR, PFS, OS, ORR, sum of target lesion diameters); format: in vivo, human
Procedure: A phase II, multicenter, single-arm study was conducted at 10 sites in Japan. Patients were treated via deep subcutaneous (buttocks) injection of lanreotide at a dosage of 120 mg once every 4 weeks for a 48-week period. Patients who completed the phase II study were enrolled in an additional multicenter single-arm extension study that used the same dosage and injection methods and involved 7 of the 10 initial sites.
Japanese patients with G1 or 2 (mild/moderate malignancy) NET and an age of ≥20 years were selected for the phase II study according to the World Health Organization (WHO) 2010 classification except for those whose primary tumors were located in the lungs, bronchi, or thymus (according to the WHO 2004 classification). Other inclusion criteria were the following: metastatic disease and/or a locally advanced inoperable tumor, or refusal of surgery, and target lesions based on the Response Evaluation Criteria in Solid Tumors (RECIST) ver.1.1, and a score of 0–2 on the WHO performance status. The exclusion criteria are described in the Electronic Supplementary Material. These criteria allowed the enrolment of the same target population as that of the CLARINET study: patients with G1 or 2 NET with primary tumor sites in the pancreas, midgut, hindgut, or unknown; non-functional NET except gastrinomas adequately controlled by proton pump inhibitors for 4 months or longer; and absence of multiple endocrine neoplasia.
The primary endpoint was the clinical benefit rate (CBR) at 24 weeks after the first injection, which served to indicate and confirm the anti-tumor effects of lanreotide. The CBR was defined as the percentage of patients in the analysis set who achieved a complete response or partial response (PR) as the best overall response, or those who maintained stable disease (SD) over 24 weeks after the first injection by central review. Secondary efficacy endpoints were progression-free survival (PFS), overall survival (OS), objective response rate (ORR), and the percent change from baseline in the sum of the diameters of target lesion from baseline. The PFS was defined as the time from the first injection until progressive disease (PD) or death. Regarding tumor lesion imaging ≥4 weeks before the baseline, the investigators evaluated computed tomography (CT) or magnetic resonance imaging (MRI) data based on the RECIST (ver. 1.1). To evaluate anti-tumor effects after baseline, CT or MRI data were evaluated centrally by an independent third party based on the RECIST (ver. 1.1). During the study period, images of each patient were determined using the same method (CT or MRI), according to the standardized procedure at each site. CT or MRI was conducted every 12 weeks from the first injection. Regarding quality of life (QOL), patients completed the European Organization for Research and Treatment of Cancer (EORTC) QOL questionnaire (QLQ)-C30 (ver. 3.0) every 12 weeks during the 48 -week period after the first injection and every 24 weeks thereafter.
(§1) Full analysis set (FAS) and CLARINET-like FAS which was satisfied eligibility criteria of the CLARINET study were used for efficacy analysis. Safety analysis set which included patients who had received the study drug at least once was used for safety analysis. Per protocol set (PPS) was used for pharmacokinetic analysis.
In the primary analysis, the CBR point estimate at 24 weeks after the first injection and an exact F distribution-based 95% confidence interval (CI) were calculated. The CBR was selected as the primary endpoint, because maintaining SD was deemed beneficial and clinically meaningful for NET patients. In the secondary analysis, Kaplan–Meier curves of PFS and OS were prepared, and median values and 95% CIs were calculated. The ORRs at 24, 48, and 60 weeks after the first injection were also calculated. […]

[2] = system: Japanese patients with grade (G) 1/G2 NET; assay: Safety: adverse events (NCI-CTCAE ver. 4.0); format: in vivo, human; conditions: for Adverse events (any): N=32
Procedure: For the safety evaluation, adverse events (AEs) were recorded after the first injection until the point of data cutoff (December 2015) in the extension study. AE severity was assessed according to the National Cancer Institute Common Terminology Criteria for Adverse Events (NCI-CTCAE) ver. 4.0. Gallbladder echography and blood evaluations, including serum anti-lanreotide antibody tests were performed every 12 weeks during the 48 -week period after the first injection, and every 24 weeks thereafter.
as §1
Safety was evaluated using results which obtained by the data in the phase II and extension studies up to the time of data cutoff. The maximum exposure period from baseline to the time of data cutoff was 100.0 weeks (median, 87.3 weeks), and the mean exposure period (SD) was 83.1 weeks (15.2 weeks).
Adverse events were evaluated using the National Cancer Institute Common Terminology Criteria for Adverse Events (NCI-CTCAE), ver. 4.0.

[3] = FAS n=28, printed as decreased by

Compound: CC(C)[C@@H]1NC(=O)[C@H](CCCCN)NC(=O)[C@@H](Cc2c[nH]c3ccccc23)NC(=O)[C@H](Cc2ccc(O)cc2)NC(=O)[C@@H](NC(=O)[C@H](N)Cc2ccc3ccccc3c2)CSSC[C@@H](C(=O)N[C@H](C(N)=O)[C@@H](C)O)NC1=O [lanreotide]
- clinical benefit rate (CBR) at 24 weeks after the first injection ([1]; 120 mg deep s.c. every 4 weeks, full analysis set, 18/28 patients, 95% CI 44.1%, 81.4%, central review): 64.3%
- CBR at 24 weeks after the first injection ([1]; CLARINET-like FAS, 15/22 patients, 95% CI 45.1%, 86.1%): 68.2%
- median PFS ([1]; FAS n=28, Kaplan-Meier): 9.1 months
- median PFS ([1]; FAS n=28, Kaplan-Meier, 95% CI 24.1, 53.1 weeks): 36.3 weeks
- percentage change from baseline in sum of diameters of target lesion at best time point, mean ± SD (decrease) [1, 3]: 3.6 ± 21.3%
- percentage change from baseline in sum of diameters of target lesion at best time point, minimum value (decrease) [1, 3]: 58.5%
- percentage change from baseline in sum of diameters of target lesion at best time point, maximum value (increase) ([1]; FAS n=28, printed as increased by): 53.4%
- CBR Week 24 ([1]; FAS subgroup Age (years) >65, 7/12): 58.3 (7/12) %
- Median time PFS ([1]; FAS subgroup Age (years) >65, N=12, median (95% CI)): 36.64 weeks
- CBR Week 24 ([1]; FAS subgroup Age (years) ≤65, 11/16): 68.8 (11/16) %
- Median time PFS ([1]; FAS subgroup Age (years) ≤65, N=16, median (95% CI)): 36.29 (12.29, 53.14) weeks
- CBR Week 24 ([1]; FAS subgroup Baseline TGR (%/month) <10, 10/13): 76.9 (10/13) %
- Median time PFS ([1]; FAS subgroup Baseline TGR (%/month) <10, N=13, median (95% CI)): 59.43 weeks
- CBR Week 24 ([1]; FAS subgroup Baseline TGR (%/month) ≥10, 8/15): 53.3 (8/15) %
- Median time PFS ([1]; FAS subgroup Baseline TGR (%/month) ≥10, N=15, median (95% CI)): 35.29 (12.14, 37.14) weeks
- CBR Week 24 ([1]; FAS subgroup Grade of tumor Grade 1, 5/9): 55.6 (5/9) %
- CBR Week 24 ([1]; FAS subgroup Grade of tumor Grade 2, 13/19): 68.4 (13/19) %
- Median time PFS ([1]; FAS subgroup Grade of tumor Grade 2, N=19, median (95% CI)): 36.29 (21.29, 49.14) weeks
- CBR Week 24 ([1]; FAS subgroup Hepatic tumor load (%) >10 and ≤25, 4/6): 66.7 (4/6) %
- Median time PFS ([1]; FAS subgroup Hepatic tumor load (%) >10 and ≤25, N=6, median (95% CI)): 35.79 weeks
- CBR Week 24 ([1]; FAS subgroup Hepatic tumor load (%) >25 and ≤50, 1/3): 33.3 (1/3) %
- Median time PFS ([1]; FAS subgroup Hepatic tumor load (%) >25 and ≤50, N=3, median (95% CI)): 25.14 (24.14, 37.14) weeks
- CBR Week 24 ([1]; FAS subgroup Hepatic tumor load (%) >50, 1/1): 100.0 (1/1) %
- CBR Week 24 ([1]; FAS subgroup Hepatic tumor load (%) ≥0 and ≤10, 12/18): 66.7 (12/18) %
- Median time PFS ([1]; FAS subgroup Hepatic tumor load (%) ≥0 and ≤10, N=18, median (95% CI)): 36.36 (21.29, 59.43) weeks
- CBR Week 24 ([1]; FAS subgroup Ki67 index (%) >2 and ≤5, 5/8): 62.5 (5/8) %
- Median time PFS ([1]; FAS subgroup Ki67 index (%) >2 and ≤5, N=8, median (95% CI)): 42.72 weeks
- CBR Week 24 ([1]; FAS subgroup Ki67 index (%) >5 and <10, 8/9): 88.9 (8/9) %
- Median time PFS ([1]; FAS subgroup Ki67 index (%) >5 and <10, N=9, median (95% CI)): 36.29 (21.29, 53.14) weeks
- CBR Week 24 ([1]; FAS subgroup Ki67 index (%) Unknown, 0/1): 0.0 (0/1) %
- Median time PFS ([1]; FAS subgroup Ki67 index (%) Unknown, N=1, 95% CI NC): 12.14 weeks
- CBR Week 24 ([1]; FAS subgroup Ki67 index (%) ≤ 2, 5/8): 62.5 (5/8) %
- CBR Week 24 ([1]; FAS subgroup Ki67 index (%) ≥10 and <20, 0/2): 0.0 (0/2) %
- Median time PFS ([1]; FAS subgroup Ki67 index (%) ≥10 and <20, N=2, median (95% CI)): 12.07 (12.00, 12.14) weeks
- CBR Week 24 ([1]; FAS subgroup Sex Female, 6/9): 66.7 (6/9) %
- Median time PFS ([1]; FAS subgroup Sex Female, N=9, median (95% CI)): 53.14 weeks
- CBR Week 24 ([1]; FAS subgroup Sex Male, 12/19): 63.2 (12/19) %
- Median time PFS ([1]; FAS subgroup Sex Male, N=19, median (95% CI)): 36.14 (12.29, 49.14) weeks
- CBR Week 24 ([1]; FAS subgroup primary tumor site Foregut (except for pancreas), 0/1): 0.0 (0/1) %
- Median time PFS ([1]; FAS subgroup primary tumor site Foregut (except for pancreas), N=1, 95% CI NC): 12.00 weeks
- CBR Week 24 ([1]; FAS subgroup primary tumor site Hindgut, 2/8): 25.0 (2/8) %
- Median time PFS ([1]; FAS subgroup primary tumor site Hindgut, N=8, median (95% CI)): 22.65 (12.14, 49.14) weeks
- CBR Week 24 ([1]; FAS subgroup primary tumor site Midgut, 2/2): 100.0 (2/2) %
- CBR Week 24 ([1]; FAS subgroup primary tumor site Other/ Unknown, 4/5): 80.0 (4/5) %
- Median time PFS ([1]; FAS subgroup primary tumor site Other/ Unknown, N=5, median (95% CI)): 36.14 weeks
- CBR Week 24 ([1]; FAS subgroup primary tumor site Pancreas, 10/12): 83.3 (10/12) %
- Median time PFS ([1]; FAS subgroup primary tumor site Pancreas, N=12, median (95% CI)): 36.79 (24.14, 59.43) weeks
- CBR Week 24 ([1]; FAS subgroup prior treatment for NET Absent, 6/6): 100.0 (6/6) %
- CBR Week 24 ([1]; FAS subgroup prior treatment for NET Present, 12/22): 54.5 (12/22) %
- Median time PFS ([1]; FAS subgroup prior treatment for NET Present, N=22, median (95% CI)): 36.22 (12.29, 49.14) weeks
- CBR Week 24 ([1]; FAS subgroup progressive disease at baseline Absent, 13/17): 76.5% (13/17)
- Median time PFS ([1]; FAS subgroup progressive disease at baseline Absent, N=17, median (95% CI)): 53.14 weeks
- CBR Week 24 ([1]; FAS subgroup progressive disease at baseline Present, 5/11): 45.5% (5/11)
- Median time PFS ([1]; FAS subgroup progressive disease at baseline Present, N=11, median (95% CI)): 25.14 (12.00, 37.14) weeks
- patients without increase in sum of diameters of target lesion at best time point ([1]; FAS, 16 of 28 patients): 57.1%
- patients with PR or SD as best overall response ([1]; FAS, 22 of 28 patients): 78.6%
- ORR at Week 60 ([1]; FAS, 1 patient with PR at 60 weeks in extension study, 95% CI 0.1%, 18.3%): 3.6%
- median OS ([1]; Kaplan-Meier): not reached
- Forty-eight weeks survival rate ([1]; Kaplan-Meier estimate): 96.4%
- median PFS ([1]; population with PD at baseline (11 patients)): 6.3 months
- median PFS ([1]; population with PD at baseline (11 patients), 95% CI 12.0, 37.1 weeks): 25.1 weeks
- median PFS ([1]; population without PD at baseline (17 patients)): 13.3 months
- median PFS ([1]; population without PD at baseline (17 patients), 95% CI 24.1 weeks, Not calculable): 53.1 weeks
- Serious AEs ([2]; 6 patients of 32): 18.8%
- Adverse events (any) ([2]; Grade 3): 11 (34.4) Number of patients (%)
- Grade 3 or higher ADRs ([2]; Grade 3 only, 6 patients of 32): 18.8%
- Adverse events (any) ([2]; Grade 4): 2 (6.3) Number of patients (%)
- Adverse events (any) ([2]; Grade 5): 0 Number of patients (%)
- ADR faeces pale ([2]; safety analysis set n=32): 18.8%
- ADR flatulence ([2]; safety analysis set n=32): 12.5%
- ADR injection site induration ([2]; safety analysis set n=32): 28.1%
- Grade 4/5 ADRs and ADRs necessitating discontinuation of the study drug ([2]; safety analysis set n=32): did not occur
- serious ADR pyrexia ([2]; safety analysis set n=32): 3.1%
- patients with AEs related to study drug (ADRs) ([2]; safety analysis set n=32, 27 patients): 84.4%
- patients with AEs ([2]; safety analysis set n=32, 31 patients): 96.9%
